Measured values as given in the NIST ThermoML archive (doi:10.1016/j.jct.2011.04.013).
± gives the expanded uncertainty stated by the source.

Tests used:
[1] = Molar enthalpy of transition or fusion; conditions: Crystal; DSC
[2] = Solid-liquid equilibrium temperature; conditions: 101.33 kPa; Crystal; DTA
[3] = molar heat capacity at constant pressure; conditions: 462.02 K; 101.33 kPa; Crystal; Large sample (1 g) DSC

Row | Molar enthalpy of transition or fusion [1] | Solid-liquid equilibrium temperature [2] | molar heat capacity at constant pressure [3] | Compound
1 | 6.17 ± 0.174 kcal/mol | 387.52 ± 0.2 K |  | CCOc1ccc2c(C)cc(=O)oc2c1 [7-ethoxy-4-methyl-2H-chromen-2-one]
2 | 7.96 ± 0.172 kcal/mol | 436.13 ± 0.22 K |  | COc1ccc2oc(=O)cc(C)c2c1 [6-methoxy-4-methylcoumarin]
3 | 7.51 ± 0.165 kcal/mol | 462.02 ± 0.24 K | 8.971 ± 0.18 J/K/mol | Cc1cc(=O)oc2cc(O)ccc12 [7-hydroxy-4-methyl-2H-chromen-2-one]
